For one assay, the target named is T1, Human PKMYT1 (Homo sapiens, UniProt Q99640).
T1 construct: Human PKMYT1 75-362 was cloned as a TEV cleavable 6xHis fusion; 6xHis (TEV cleavable) (cleaved yes); made in house; host or cells: bacterial cells
T1 sequence (Q99640 75-362): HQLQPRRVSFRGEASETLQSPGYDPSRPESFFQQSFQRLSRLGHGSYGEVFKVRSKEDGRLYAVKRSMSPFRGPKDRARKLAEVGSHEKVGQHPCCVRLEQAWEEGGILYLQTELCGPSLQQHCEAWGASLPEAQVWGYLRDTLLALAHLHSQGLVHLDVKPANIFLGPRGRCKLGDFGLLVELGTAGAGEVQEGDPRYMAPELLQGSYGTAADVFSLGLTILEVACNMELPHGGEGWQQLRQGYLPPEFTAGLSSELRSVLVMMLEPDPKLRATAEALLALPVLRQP
The assay can be described thus: PKMYT1 biochemical ADP-Glo enzymatic assay. In short, it runs like this:
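IC50 derived from luminescence (ADP-Glo Max) after PKMYT1 kinase domain, 15 nM, turned over 500 µM ATP for 60 min at 26 °C. Buffer contained 10 mM MgCl2, 1 mM EGTA and 0.01% Brij-35 at pH 7.5.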

The target of the next assay is T2, WEE1 (Homo sapiens, UniProt P30291).
T2 construct: purchased Thermo Fisher PR7373A
T2 sequence (P30291 whole entry): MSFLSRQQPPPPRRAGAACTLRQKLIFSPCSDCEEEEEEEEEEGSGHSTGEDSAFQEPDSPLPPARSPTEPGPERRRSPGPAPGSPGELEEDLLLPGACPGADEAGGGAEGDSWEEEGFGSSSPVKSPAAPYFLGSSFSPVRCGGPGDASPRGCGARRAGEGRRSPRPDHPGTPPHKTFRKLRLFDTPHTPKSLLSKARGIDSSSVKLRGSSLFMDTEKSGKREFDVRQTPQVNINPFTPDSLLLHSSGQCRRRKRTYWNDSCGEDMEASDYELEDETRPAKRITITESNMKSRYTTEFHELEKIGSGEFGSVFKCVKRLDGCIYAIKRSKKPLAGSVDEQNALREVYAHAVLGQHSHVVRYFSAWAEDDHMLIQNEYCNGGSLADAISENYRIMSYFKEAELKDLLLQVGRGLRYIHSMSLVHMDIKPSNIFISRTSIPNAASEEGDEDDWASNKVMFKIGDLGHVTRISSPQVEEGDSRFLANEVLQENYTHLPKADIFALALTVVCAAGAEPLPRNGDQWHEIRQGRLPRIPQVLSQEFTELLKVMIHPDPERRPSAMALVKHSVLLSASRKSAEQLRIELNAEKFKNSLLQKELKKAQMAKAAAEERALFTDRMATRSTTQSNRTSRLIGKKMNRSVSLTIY
The experiment in a line: Selectivity versus WEE1 assay (ADP-Glo enzymatic assay). The assay is classed as biochemical. The following applies: for IC50: ADP-Glo; for PKMYT1 vs. WEE1 selectivity: fold difference in selectivity for PKMYT1 over WEE1. The procedure: Selectivity versus WEE1 assay: Selectivity was established using the same format as outlined for PKMYT1. After dosing of compounds via the Echo acoustic dispenser—as described above—WEE1 (Thermo Fisher PR7373A) was added to each well at a final concentration of 15 nM in a buffer of 50 mM HEPES (pH 7.5), 10 mM MgCl2, 1 mM EGTA, 0.01% Brij-35, 1% DMSO. 30 µM ATP was added to start the reaction with the final assay volume being 4 μl. The plate was then incubated for 60 minutes at 26° C. before the addition of 4 μl of ADP-Glo Reagent. Following a further 60 minute incubation the assay signal was developed by the addition of 8 μl ADP-Glo Detection Reagent. After 60 minutes the luminescence signal was read on a PHERAStar FS microplate reader (BMG Labtech).
Data analysis: Data was captured and analysed within the Dotmatics Studies software module where dose response curves were generated and IC50 values determined. Acceptance and verification of data followed strict in-house business rules which are summarised as follows. […] Technical and biological replicates of each compound are routinely tested and replicate IC50 values must fall within 3-fold of each other with dose response curves showing ‘goodness of fit’ r2 values >0.9. Failure to meet any of these defined criteria result in rejection of data.
For orientation: ADP-Glo turns the ADP formed in a reaction into a luminescent signal.

Setting [1] is: PKMYT1 kinase domain 15 nM, ADP-Glo, banded values.
Setting [2] is: ADP-Glo, 15 nM PKMYT1 kinase domain, 500 µM ATP, 60 minutes at 26° C., banded.
The mark [3] stands for this setting: 15 nM WEE1, 60 minutes at 26° C., banded.
Setting [4] is: banded, ">N" = at least in this band but could be higher.

Where a name gives a salt, the structure may show the parent alone.

In general, IC50 refers to the concentration that gives 50% inhibition. A low value points to higher potency. In the case of `Cc1ccc(O)c(C)c1NC(=O)c1cnc(Nc2noc(C)c2C)s1` [BAA-439, 2-((4,5-dimethylisoxazol-3-yl)amino)-N-(3-hydroxy-2,6-dimethylphenyl)thiazole-5-carboxamide], the IC50 was under 0.05 µM on Human PKMYT1 (setting [1]) and 1 to 11 µM against WEE1 (WEE1 15 nM, banded values). Also, the “PKMYT1 vs. WEE1 selectivity” value on WEE1 (banded) was “X (100-<1000 fold)”.
In the same order, the values of `Cc1c(O)ccc(Cl)c1NC(=O)c1cnc(Nc2ccn(C)n2)s1` [BAA-474, N-(6-Chloro-3-hydroxy-2-methyl-phenyl)-2-[(1-methylpyrazol-3-yl)amino]thiazole-5-carboxamide] are 0.05 to 1 µM, over 11 µM and “X (100-<1000 fold)”.
Turning to `Cc1ccc(O)c(C)c1NC(=O)c1cnc(Nc2ccn([C@@H]3CCN(C(=O)CC4CCOCC4)C3)n2)s1` [BAA-090], the values for the 50% inhibitory concentration (IC50) on Human PKMYT1 (setting [2]) and at WEE1 (setting [3]) were 0.05 to 1 µM and over 11 µM, respectively. Besides, the “PKMYT1 vs. WEE1 selectivity” value on WEE1 (setting [4]) is given as “>X (100-<1000 fold)”.
In the case of `Cc1ccc(O)c(C)c1NC(=O)c1cnc(Nc2ccn([C@@H]3CCN(C(=O)CC(F)(F)F)C3)n2)s1` [BAA-084], the values for the IC50 at Human PKMYT1 (setting [2]) and at WEE1 (setting [3]) were 0.05 to 1 µM and over 11 µM, respectively. The “PKMYT1 vs. WEE1 selectivity” value at WEE1 (setting [4]) is “>Y (1000-5000 fold)”.
In the same order, the values of `Cc1csc(Nc2ncc(C(=O)Nc3c(C)ccc(O)c3C)s2)n1` [BAA-264, N-(3-hydroxy-2,6-dimethylphenyl)-2-((4-methylthiazol-2-yl)amino)thiazole-5-carboxamide] are under 0.05 µM, over 11 µM and “X (100-<1000 fold)”.
As to `Cc1nc2cc(Nc3ncc(C(=O)Nc4c(C)ccc(O)c4C)s3)ccc2o1` [BAA-445, N-(3-hydroxy-2,6-dimethylphenyl)-2-((2-methylbenzo[d]oxazol-5-yl)amino)thiazole-5-carboxamide], the IC50 fell in the range of 0.05 to 1 µM against Human PKMYT1 (setting [1]) and 1 to 11 µM at WEE1 (WEE1 15 nM, banded values). In addition, at WEE1 (banded), the “PKMYT1 vs. WEE1 selectivity” value is on record as “X (100-<1000 fold)”.
Take `Cc1ccc(O)c(C)c1NC(=O)c1cnc(Nc2ccn([C@H]3CCNC3)n2)s1` [BAA-057, N-(3-hydroxy-2,6-dimethyl-phenyl)-2-[1-[(3S)-pyrrolidin-3-yl]pyrazol-3-yllamino]thiazole-5-carboxamide (hydrochloride)]: the values for the IC50 at Human PKMYT1 (setting [2]) and against WEE1 (setting [3]) were 1 to 11 µM and over 11 µM, respectively. In addition, the “PKMYT1 vs. WEE1 selectivity” value at WEE1 (setting [4]) is “>W (10-<100 fold)”.
In the same order, the values of `Cc1ccc(O)c(C)c1NC(=O)c1cnc(Nc2cc(CO)n(C)n2)s1` [BAA-251, N-(3-hydroxy-2,6-dimethylphenyl)-2-((5-(hydroxymethyl)-1-methyl-1H-pyrazol-3-yl)amino)thiazole-5-carboxamide] are under 0.05 µM, 1 to 11 µM and “X (100-<1000 fold)”.
In the same order, the values of `Cc1ccc(O)c(C)c1NC(=O)c1cnc(Nc2ccn([C@@H]3CCOC3)n2)s1` [BAA-037] are 0.05 to 1 µM, over 11 µM and “>X (100-<1000 fold)”.
On the same counts, the results for `Cc1ccc(O)c(C)c1NC(=O)c1cnc(Nc2ccn(CC(=O)N[C@H](C)CO)n2)s1` [BAA-164] are under 0.05 µM, over 11 µM and “Y (1000-5000 fold)”.
Turning to `Cc1ccc(O)c(C)c1NC(=O)c1cnc(Nc2ccn(C)n2)s1` [BAA-004, N-(3-hydroxy-2,6-dimethyl-phenyl)-2-[(1-methylpyrazol-3-yl)amino]thiazole-5-carboxamide], the IC50 at Human PKMYT1 (setting [2]) is 0.05 to 1 µM; at Human PKMYT1 (PKMYT1 biochemical ADP-Glo enzymatic assay, Comparison Data 2), 0.055 µM; on WEE1 (setting [3]) it was 1 to 11 µM. On Human PKMYT1 (vs REF-003), the “improvement in PKMYT1 IC50 as compared to REF-003” value was determined as 987 fold. Moreover, the “improvement in PKMYT1 IC50 as compared to REF-004” value at Human PKMYT1 (vs REF-004) is reported as over 1800 fold. On WEE1 (setting [4]), the “PKMYT1 vs. WEE1 selectivity” value is given as “X (100-<1000 fold)”.
In the case of `Cc1ccc(O)c(C)c1NC(=O)c1cnc(Nc2ccn(CC(=O)NCCN3CCCCC3)n2)s1` [BAA-168, N-(3-hydroxy-2,6-dimethyl-phenyl)-2-[[1-[2-oxo-2-[2-(1-piperidyl)ethylamino]ethyl]pyrazol-3-yl]amino]thiazole-5-carboxamide (hydrochloride)], the IC50 is 0.05 to 1 µM against Human PKMYT1 (setting [2]) and over 11 µM against WEE1 (setting [3]). Further, the “PKMYT1 vs. WEE1 selectivity” value on WEE1 (setting [4]) was “W (10-<100 fold)”.
As for `Cc1ccc(O)c(C)c1NC(=O)c1cnc(Nc2n[nH]c3ccccc23)s1` [BAA-455, 2-((1H-indazol-3-yl)amino)-N-(3-hydroxy-2,6-dimethylphenyl)thiazole-5-carboxamide], the IC50 on Human PKMYT1 (setting [1]) is 0.05 to 1 µM; at WEE1 (WEE1 15 nM, banded values), over 11 µM. Besides, on WEE1 (banded), the “PKMYT1 vs. WEE1 selectivity” value is reported as “X (100-<1000 fold)”.
On the same counts, the results for `Cc1ccc(O)c(C)c1NC(=O)c1cnc(Nc2ccn(C(C)C(=O)N3CCN(C)CC3)n2)s1` (stereo not drawn) [BAA-534, N-(3-hydroxy-2,6-dimethylphenyl)-2-((1-(1-(4-methylpiperazin-1-yl)-1-oxopropan-2-yl)-1H-pyrazol-3-yl)amino)thiazole-5-carboxamide] are under 0.05 µM, over 11 µM and “Y (1000-5000 fold)”.
Take `COc1cncnc1Nc1ncc(C(=O)Nc2c(C)ccc(O)c2C)s1` [BAA-559, N-(3-hydroxy-2,6-dimethylphenyl)-2-((5-methoxypyrimidin-4-yl)amino)thiazole-5-carboxamide]: the 50% inhibitory concentration (IC50) against Human PKMYT1 (setting [1]) is under 0.05 µM; at WEE1 (WEE1 15 nM, banded values), 1 to 11 µM. The “PKMYT1 vs. WEE1 selectivity” value at WEE1 (banded) is on record as “X (100-<1000 fold)”.
As to `Cc1nnc(Nc2ncc(C(=O)Nc3c(C)ccc(O)c3C)s2)s1` [BAA-263, N-(3-hydroxy-2,6-dimethylphenyl)-2-((5-methyl-1,3,4-thiadiazol-2-yl)amino)thiazole-5-carboxamide], the IC50 against Human PKMYT1 (setting [2]) was 0.05 to 1 µM; at WEE1 (setting [3]), over 11 µM. The “PKMYT1 vs. WEE1 selectivity” value on WEE1 (setting [4]) was “X (100-<1000 fold)”.
On the same counts, the results for `CC(=O)N1CCN(C(=O)Cn2ccc(Nc3ncc(C(=O)Nc4c(C)ccc(O)c4C)s3)n2)CC1` [BAA-145] are under 0.05 µM, over 11 µM and “Y (1000-5000 fold)”.
Take `Cc1ccc(O)c(C)c1NC(=O)c1cnc(Nc2n[nH]c3cc(F)cc(F)c23)s1` [BAA-452, 2-((4,6-difluoro-1H-indazol-3-yl)amino)-N-(3-hydroxy-2,6-dimethylphenyl)thiazole-5-carboxamide]: the IC50 on Human PKMYT1 (setting [1]) was 0.05 to 1 µM; against WEE1 (WEE1 15 nM, banded values), over 11 µM. The “PKMYT1 vs. WEE1 selectivity” value on WEE1 (banded) is on record as “X (100-<1000 fold)”.
Take `Cc1ccc(O)c(C)c1NC(=O)c1cnc(Nc2ccn(CC(=O)NCCN3CCCC3)n2)s1` [BAA-167]: the IC50 is 0.05 to 1 µM on Human PKMYT1 (setting [2]) and over 11 µM on WEE1 (setting [3]). Moreover, the “PKMYT1 vs. WEE1 selectivity” value at WEE1 (setting [4]) is on record as “X (100-<1000 fold)”.
On the same counts, the results for `Cc1ccc(O)c(C)c1NC(=O)c1cnc(Nc2ccn(CC(=O)N3CC[C@@H](O)C3)n2)s1` [BAA-139, N-(3-hydroxy-2,6-dimethyl-phenyl)-2-[[1-[2-[(3R)-3-hydroxypyrrolidin-1-yl]-2-oxo-ethyl]pyrazol-3-yl]amino]thiazole-5-carboxamide] are under 0.05 µM, over 11 µM and “Y (1000-5000 fold)”.
On the same counts, the results for `Cc1ccc(O)c(C)c1NC(=O)c1cnc(Nc2ccc(C(C)(C)C)cc2)s1` [BAA-281, 2-((4-(tert-butyl)phenyl)amino)-N-(3-hydroxy-2,6-dimethylphenyl)thiazole-5-carboxamide] are 0.05 to 1 µM, over 11 µM and “X (100-<1000 fold)”.
In the same order, the values of `Cc1ccc(O)c(C)c1NC(=O)c1sc(Nc2ccn(C)n2)nc1N` [BAA-219, 4-Amino-N-(3-hydroxy-2,6-dimethyl-phenyl)-2-[(1-methylpyrazol-3-yl)amino]thiazole-5-carboxamide] are 1 to 11 µM, 1 to 11 µM and “V (3-<10 fold)”.
Consider `CCOc1ccccc1Nc1ncc(C(=O)Nc2c(C)ccc(O)c2C)s1` [BAA-539, 2-((2-ethoxyphenyl)amino)-N-(3-hydroxy-2,6-dimethylphenyl)thiazole-5-carboxamide. TFA salt], for which the IC50 was 0.05 to 1 µM against Human PKMYT1 (setting [1]) and over 11 µM against WEE1 (WEE1 15 nM, banded values). Also, on WEE1 (banded), the “PKMYT1 vs. WEE1 selectivity” value is listed as “X (100-<1000 fold)”.

These data come from patent publication US20260297042A1, “BIARYLAMIDE DERIVATIVES AND THEIR USE AS PKMYT1 INHIBITORS” (CANCER RESEARCH TECHNOLOGY LIMITED, priority 2023, published 2026).
